Source: US20230203156A1, “ANTI-MDR1 ANTIBODIES AND USES THEREOF” (KENJOCKETY BIOTECHNOLOGY, INC., priority 2020, published 2023)
Where two headings read alike, the source gives them in different places.

Assays:
[1] = tested on: MES-SA DX5 uterine sarcoma; assay: MES-SA DX5 drug-resistant uterine sarcoma model in nude mice; format: in vivo; details: MES-SA DX5 tumors in vivo
Procedure: Anti-ABCB1 antibodies B1.129, B1.261, B1.223, B1.225, B1.188, B1.28, and B1.226 were tested for effect on growth of tumors in immunodeficient mice. The following cancer cell lines were used for generating tumor models.
MES-SA DX5: The multi drug-resistant cell line MES-SA/Dx5 (Sigma. 95051031) was derived from the human uterine sarcoma cell line MES-SA (Sigma Catalogue number. 95051030) which was originally obtained from a tumour from a person at the time of hysterectomy. […] Cross resistance to bleomycin, cisplatin, carmustine, 5-fluorouracil or methotrexate was not observed.
Nude mice were implanted with MES-SA DX5 cells to model uterine sarcoma. Anti-B1 monoclonal antibodies are efficacious in MES-SA DX5 uterine sarcoma model in nude mice.

[2] = tested on: human MDR1 extracellular loops 1 and 4 (ECD1, ECD4); assay: Epitope mapping with mutant human MDR1 expressed on 293T cells (flow cytometry); format: binding; details: mutant versus WT human ABCB1; preliminary epitope mapping
Description: To determine binding of anti-MDR1 mAbs listed in Table 2 to the two major extracellular loops 1 and 4 of MDR1, various mutations were constructed to alter or substitute these two loops. To examine binding to cynomolgus extracellular loops, the extracellular loop 1 and/or loop 4 of cynomolgus MDR1 were grafted (with a C-terminal FLAG tag) to substitute for the human loops in the human MDR1 using standard techniques. To examine binding dependence on the normal human loops, MDR1 variants with deletion 79-102 and deletion 82-99 in loop 1 were also generated. Loop 1 is also referred to as ECD1. Loop 4 is also referred to as ECD4. These mutant MDR1 efflux pump variants were expressed on 293T cells using standard methods to generate cells that could be used to distinguish binding of various anti-MDR1 mAbs. The different cells were incubated with different anti-MDR1 mAbs for about 1 hour at 4° C. The cells were washed twice with FACS buffer (PBS containing 0.5% BSA). Alexa647 labeled goat anti-human antibody was added as a secondary antibody, and the samples were incubated on ice for another 1 hour. Samples were washed again and analyzed by flow cytometry.
FIG. 9 summarizes the findings from preliminary epitope mapping using mutant human MDR1. […] For example, anti-MDR1 mAb B1.129 requires ECD1 and ECD4 for binding to human MDR1. All of the anti-MDR1 antibodies contact ECD4. […] ECD1 refers to the first extracellular domain of human ABCB1, ECD4 refers to the fourth extracellular domain of human ABCB1 and “others” refers to the remainder of the extracellular domains 2-3 and 5-6 of human ABCB1. Only binding to ECD1 and ECD4 was tested.

[3] = tested on: N6/ADR cells; assay: Vincristine cytotoxicity assay on N6/ADR cells (CellTiter-Glo); format: cell-based, human; details: for IC50: Homo sapiens
Procedure: (§1) The effect of antibodies on vincristine cytotoxicity was evaluated on N6/ADR, a doxorubicin-selected, ABCB1-positive variant of the human acute lymphoblastic leukemia (ALL) cell line, NALM6. Cells were plated in 0.05 mL of Assay Media (RPMI-1640 +10% FBS) at 5000 cells/well in white flat bottom 96-well tissue culture plates. Vincristine was prepared at 2X final assay concentration by serial dilution from 200 uM in assay media containing test antibodies or control antibodies at 100 ug/mL (2X final concentration), or valspodar, a small molecule KPB1 inhibitor at 7 uM (2X final concentration). An equivalent volume (0.05 mL) of the vincristine/antibody mixture was added to the N6/ADR cells in 96-well plates. The plates were then incubated at 37° C., in 5% CO2. After 72 hr plates were equilibrated to room temperature and cell viability assessed using Promega® CellTiter-Glo® Luminescent Cell Viability Assay according to the manufacturer’s recommended protocol. Luminescence was measured on a Molecular Devices® FlexStation® 3 Multi-Mode Microplate Reader and data analyzed using GraphPad Prism 8.0 software.
as §1, with “Cytotoxicity Assays. The effect” for “The effect”, “a doxorubicin-selected, B1-positive variant of” for “a doxorubicin-selected, ABCB1-positive variant of”, “small molecule B1 inhibitor at” for “small molecule KPB1 inhibitor at”, “8.0 software. Half maximal inhibitory concentration (IC50) is the concentration of drug (vincristine or other chemotherapy cytotoxic agent) where the response (cell growth) is reduced by 50%.” for “8.0 software.”

[4] = target: T1, human MDR1 (Homo sapiens, UniProt P08183); assay: Efflux blockade of MDR1 fluorescent substrates (flow cytometry); format: cell-based
T1 construct: expressed in transfected cells
Procedure: HEK 293T cells expressing human MDR1 or MES-SA/DX5 cells expressing human MDR1 were washed several times and aliquoted into 96-well plates as 50 µl aliquots/well at a cell density of 1 x 10e6 cells per ml in phenol red-free DMEM. Cells were mixed with 300 nM to 1 nM antibodies and incubated for 1 h at 37° C. To determine efflux blockade cells were incubated in the presence of B1 fluorescent substrates as follows: 0.6 µM Rhodamine; 5 µM […] (DiOC2(3)) or 0.6 µM Calcein AM for 1.5 h at 37° C. The cells were then washed twice and finally resuspended in […] PBS. Rhodamine, DiOC2(3) or Calcein AM fluorescence were measured by flow cytometry.
Effect of anti-MDR1 antibodies on efflux of MDR1 substrates Calcein, DIOC2, and Rhodamine was assessed as described in efflux blockade experimental procedure.

[5] = tested on: DX5-B1 KO uterine sarcoma; assay: Uterine sarcoma formed from MES-SA DX5 cells lacking ABCB1 expression (DX5-B1 KO); format: in vivo

## 15D3: anti-ABCB1 antibody known as 15D3; VH SEQ ID NO:287, VL SEQ ID NO:284 [reference compound]
[1]
  sensitization of MES-SA DX5 uterine sarcoma to paclitaxel: did not sensitize
[2]
  ECD1 required for antibody binding to human ABCB1: do not require
  ECD4 required for antibody binding to human ABCB1: bind to an epitope that includes ECD4 sequences
[3]; N6/ADR cells
  potentiation of vincristine mediated cytotoxicity: did not potentiate
[4]; 293T.hB1 cell line
  inhibition of efflux of DIOC2: no observable effect
  inhibition of efflux of Rhodamine: low inhibition
[4]; MES-SA/Dx5 cells
  inhibition of efflux of DIOC2: no observable effect
  inhibition of efflux of Rhodamine: no effect

## CC[C@]1(O)C[C@H]2CN(CCc3c([nH]c4ccccc34)[C@@](C(=O)OC)(c3cc4c(cc3OC)N(C=O)[C@H]3[C@@](O)(C(=O)OC)[C@H](OC(C)=O)[C@]5(CC)C=CCN6CC[C@]43[C@@H]65)C2)C1 [Vincristine, vincristine]
[3]; 72 h, read-out: IC50 (pM), cytotoxicity to N6/ADR cells by vincristine
  IC50: 4120 pM
[3]; IC50 of vincristine alone or with antibody, N6/ADR cells, 72 hr, read-out: IC50 (nM), vincristine cytotoxicity
  IC50: 543 pM

## CC(=O)O[C@H]1C(=O)[C@@]2(C)[C@H]([C@H](OC(=O)c3ccccc3)[C@]3(O)C[C@H](OC(=O)[C@H](O)[C@@H](NC(=O)c4ccccc4)c4ccccc4)C(C)=C1C3(C)C)[C@]1(OC(C)=O)CO[C@@H]1C[C@@H]2O [paclitaxel]
[5]
  sensitivity of tumor to paclitaxel: sensitive

## KPA08: anti-ABCB1 antibody with two heavy chains from 15D3 and two light chains from MRK16 [reference compound]
[2]
  ECD1 required for antibody binding to human ABCB1: do not require
  ECD4 required for antibody binding to human ABCB1: bind to an epitope that includes ECD4 sequences

## MRK16: anti-ABCB1 antibody known as MRK16; VH SEQ ID NO:286, VL SEQ ID NO:283
[3]; N6/ADR cells
  potentiation of vincristine mediated cytotoxicity: did not potentiate
